Measured values taken from patent US7879342B2, “Vaccine adjuvant and making and using the same” (Univ. of Georgia Research Foundation, Inc., priority 2004, dated 2011).

Tested on: Eimeria tenella
Assay: Protective immunity against Eimeria tenella challenge after in ovo treatment and live coccidiosis vaccine
Assay type: in vivo, Broiler chicks
Design: key to Mean Cecal Score: cecal lesion score per Johnson & Reid (1970); Mean Gain: unit not given here
Conditions: challenged at 28 days
Description: A laboratory strain of Eimeria tenella was used as live coccidiosis vaccine (1000 oocysts per bird), and was given by individual oral gavage to day-old chicks. At 28 days of age, each bird was challenged by inoculation of virulent cecal coccidia (a field isolate of E. tenella with a challenge dose of 100,000 oocysts per bird) or kept as unchallenged controls. Six days post-challenge, birds were euthanized for necropsy and lesion score (see, e.g., Johnson & Reid, 1970, Exper. Parasitol. 28:30-36). Weight gains were calculated. […] Partial protection is not uncommon with coccidiosis vaccines administered in this way in short term challenge experiments. […]

[1] = E10 (10 IU) in ovo, Table 2 second set
[2] = E10 (10 IU) in ovo, Table 2 third set
[3] = E20 (20 IU) in ovo, Table 2 second set
[4] = E20 (20 IU) in ovo, Table 2 third set
[5] = E30 (30 IU) in ovo, Table 2 second set
[6] = E30 (30 IU) in ovo, Table 2 third set

vitamin E
Mean Cecal Score [1]: 1.53
Mean Gain [1]: 361
Mean Cecal Score [2]: 1.46
Mean Gain [2]: 438
Mean Cecal Score [3]: 1.73
Mean Gain [3]: 357
Mean Cecal Score [4]: 1.21
Mean Gain [4]: 322
Mean Cecal Score [5]: 1.55
Mean Gain [5]: 388
Mean Cecal Score [6]: 0.5
Mean Gain [6]: 454
